Assay results published in US12502386B2, “Nitrogen-containing heterocyclic compound and use thereof” (SHANGHAI SHIJIANG BIOTECHNOLOGY CO., LTD, priority 2022, dated 2025).
Read-outs that look alike come from different tables or passages of the source.

Tests used:
[1] = system: Con-NCI-H82 cell; test: CellTiter-Glo cell viability, Con-NCI-H82 cell (empty-vector control); type: cell-based, human; details: Homo sapiens, NCI-H82, NCI-H82 transfected with empty virus vector (control), intracellular ATP, read-out: inhibitory effect on Con-NCI-H82 (IC50)
[2] = system: ov-NNMT NCI-H82 cell; test: CellTiter-Glo cell viability, ov-NNMT NCI-H82 cell (NNMT overexpressed); type: cell-based, human; details: intracellular ATP, read-out: inhibitory effect on OV-NNMT NCI-H82 (IC50)
[3] = system: sh-DNMT1 NCI-H82 cell; test: CellTiter-Glo cell viability, sh-DNMT1 NCI-H82 cell (DNMT1 knocked down); type: cell-based, human; details: Homo sapiens, NCI-H82, NCI-H82 with DNMT1 knocked down by shRNA, intracellular ATP, read-out: inhibitory effect on sh-DNMT1 NCI-H82 (IC50)
[4] = system: NCI-H82; test: CellTiter-Glo cell viability, tumor cell line NCI-H82; type: cell-based; details: NCI-H82, 72 h; human small cell lung cancer cell; 3 days of culture; read-out: inhibitory effect on NCI-H82 (IC50)
Protocol: (§1) Cell viability was detected using the Promega CellTiter-Glo kit, cell viability was determined by directly measuring intracellular ATP content. In the experiment, the IC50 value of the compounds prepared in the Examples of the present invention on various tumor cell lines was detected.
(§2) Each tumor cell was cultured in relevant medium. After cell passage, the gradient diluted compounds prepared in the Examples of the present invention was added. After 3 days of culture, the relevant IC50 (50% inhibiting concentration) was measured. The name, source and culture conditions of each tumor cell line were as follows:
Cell line NCI-H82 (ATCC, No. HTB-175) was cultured in 10% fetal bovine serum-containing RPMI1640 medium (+P/S).

[5] = system: G-401; test: CellTiter-Glo cell viability, tumor cell line G-401; type: cell-based; details: G-401, 72 h; human renal carcinoma Wilms cell; 3 days of culture; read-out: inhibitory effect on G-401 (IC50)
Protocol: as §1, §2
Cell line G-401 (ATCC, No. CRL-1441) was cultured in 10% fetal bovine serum-containing McCoy's 5a medium (+P/S).

[6] = system: MDA-MB-453; test: CellTiter-Glo cell viability, tumor cell line MDA-MB-453; type: cell-based; details: Homo sapiens, MDA-MB-453, 72 h; breast cancer cell; 3 days of culture; read-out: inhibitory effect on MDA-MB-453 (IC50)
Protocol: as §1
as §2, with “follows: […]” for “follows:”

[7] = system: SW48; test: CellTiter-Glo cell viability, tumor cell line SW48; type: cell-based; details: SW48, 72 h; human colon adenocarcinoma cell; 3 days of culture; read-out: inhibitory effect on SW48 (IC50)
Protocol: as §1, §2
Cell line SW48 (ATCC, No. CCL-231) was cultured in 10% fetal bovine serum-containing Leibovitz's L-15 medium (+P/S).

[8] = system: CFPAC-1; test: CellTiter-Glo cell viability, tumor cell line CFPAC-1; type: cell-based; details: CFPAC-1, 72 h; human pancreatic cancer cell; 3 days of culture; read-out: inhibitory effect on CFPAC-1 (IC50)
Protocol: as §1, §2
Cell line CFPAC-1 (ATCC, No. CRL-1918) was cultured in 10% fetal bovine serum-containing IMDM medium (+P/S).

[9] = system: 786-O; test: CellTiter-Glo cell viability, tumor cell line 786-O; type: cell-based; details: Homo sapiens, 786-0, 72 h; clear cell renal cell adenocarcinoma cell; 3 days of culture; read-out: inhibitory effect on 786-O (IC50)
Protocol: as §1, §2
Cell line 786-0 (ATCC, No. CRL-1932) was cultured in 10% fetal bovine serum-containing RPMI164B medium (+P/S).

[10] = system: GB-1; test: CellTiter-Glo cell viability, tumor cell line GB-1; type: cell-based; details: GB-1, 72 h; human brain glioblastoma cell; 3 days of culture; read-out: inhibitory effect on GB-1 (IC50)
Protocol: as §1, §2
Cell line GB-1 (JCRB, No. IFO50489) was cultured in 10% fetal bovine serum-containing DMEM medium (+P/S).
(§3) Cell viability was detected using the Promega CellTiter-Glo kit, cell viability was determined by directly measuring intracellular ATP content. In the experiment, the IC50 value of the compounds prepared in the Examples of the present invention on various brain tumor cell lines was detected.

[11] = system: SF-126; test: CellTiter-Glo cell viability, tumor cell line SF-126; type: cell-based; details: SF-126, 72 h, read-out: inhibitory effect on SF-126 (IC50); human glioblastoma multiforme cell; 3 days of culture
Protocol: as §1, §2
Cell line SF126 (JCRB, No. IFO50286) was cultured in 10% fetal bovine serum-containing EMEM medium (+P/S).
as §3

[12] = system: D341 Med; test: CellTiter-Glo cell viability, brain tumor cell line D341 Med; type: cell-based; details: Homo sapiens, 72 h, cerebellar medulloblastoma cell, 3 days of culture, read-out: inhibitory effect on D341 Med (IC50)
Protocol: as §3, §2
Cell line D341 Med (ATCC, No. HTB-187) was cultured in 20% fetal bovine serum-containing EMEM medium (+P/S).

[13] = system: Kelly; test: CellTiter-Glo cell viability, brain tumor cell line Kelly; type: cell-based; details: Homo sapiens, 72 h, brain neuroblastoma cell, 3 days of culture, read-out: inhibitory effect on Kelly (IC50)
Protocol: as §3, §2
Cell line Kelly (ECACC, No. 92110411) was cultured in 10% fetal bovine serum and 2 mM glutamine-containing RPMI1640 medium.

[14] = system: NB-1; test: CellTiter-Glo cell viability, brain tumor cell line NB-1; type: cell-based; details: Homo sapiens, NB1, 72 h; brain neuroblastoma cell; 3 days of culture; read-out: inhibitory effect on NB-1 (IC50)
Protocol: as §3
as §2, with “follows: […]” for “follows:”

[15] = Homo sapiens, NCI-H82, NCI-H82 overexpressing NNMT protein

IC50 [1]	IC50 [2, 15]	IC50 [3]	Structure (SMILES)	also measured
			COc1ccc2c(c1OC)C(C1CCCC1)N1CCc3cc4c(cc3C1=C2)OCO4 (stereo not shown) [AB31900]	IC50 ([2]; NCI-H82 overexpressing NNMT protein): 4.88 µM; IC50 [4]: 1.08 µM; IC50 [5]: 1.32 µM; IC50 [6]: 1.46 µM; IC50 [7]: 1.28 µM; IC50 [8]: 18.3 µM; IC50 [9]: 15.7 µM; IC50 [10]: > 30 µM; IC50 [11]: 20.1 µM; IC50 [12]: 0.98 µM; IC50 [13]: 1.12 µM; IC50 [14]: 0.88 µM
0.74 µM	2.73 µM	3.44 µM	COc1ccc2c(c1OCCCCCCNC(=O)OC(C)(C)C)C(C(Cl)(Cl)Cl)N1CCc3cc4c(cc3C1=C2)OCO4 (stereo not shown) [AB35407]	
2.68 µM	7.52 µM	8.46 µM	COc1ccc2c(c1OCCCCl)C(C1CCC1)N1CCc3cc4c(cc3C1=C2)OCO4 (stereo not shown) [AB35490]	
1.22 µM	5.68 µM	8.82 µM	[2H]C1c2c(ccc(OC)c2OC)C=C2c3cc4c(cc3CC([2H])([2H])N21)OCO4 (stereo not shown) [AB36477]	
1.43 µM	5.32 µM	4.96 µM	COc1ccc2c(c1OCCCCCCBr)C(C)N1CCc3cc4c(cc3C1=C2)OCO4 (stereo not shown) [AB31897]	
3.52 µM	10.1 µM	13.3 µM	COc1ccc2c(c1N1CCN(C)CC1)C(C(Cl)(Cl)Cl)N1CCc3cc4c(cc3C1=C2)OCO4 (stereo not shown) [AB35518]	
0.14 µM	1.33 µM	1.56 µM	COc1ccc2c(c1N1CCC(C)CC1)CN1CCc3cc4c(cc3C1=C2)OCCO4 [AB35545]	
1.46 µM	4.56 µM	4.44 µM	CCCC1=C2c3cc4c(cc3CCN2C(C(Cl)(Cl)Cl)c2c1ccc(OC)c2OC)OCO4 (stereo not shown) [AB35492]	
1.34 µM	2.98 µM	2.88 µM	COc1ccc2c(c1OC)C(C1CCCC1)N1CCc3cc4c(cc3C1=C2CCc1ccccc1)OCO4 (stereo not shown) [AB35448]	
0.66 µM	2.02 µM	2.56 µM	COc1ccc2c(c1OC)C(C1CCCC1)N1CCc3cc4c(cc3C1=C2Cc1ccc(C(C)C)cc1)OCO4 (stereo not shown) [AB35460]	
15 µM	13.3 µM	14.1 µM	CC1=C2c3cc4c(cc3CCN2C(C(Cl)(Cl)Cl)c2c1ccc1c2OCO1)OCO4 (stereo not shown) [AB36442]	
1.28 µM	4.12 µM	4.38 µM	COc1ccc2c(c1OC)C(C)N1CCc3cc4c(cc3C1=C2CCc1ccccc1)OCO4 (stereo not shown) [AB35498]	
0.38 µM	1.54 µM	1.46 µM	COc1ccc2c(c1OCCBr)CN1CCc3cc4c(cc3C1=C2)OCO4 [AB36403]	
0.22 µM	1.21 µM	1.32 µM	COc1ccc2c(c1OCCCCc1ccccc1)C(C(Cl)(Cl)Cl)N1CCc3cc4c(cc3C1=C2)OCO4 (stereo not shown) [AB35535]	
0.98 µM	2.56 µM	4.12 µM	COc1ccc2c(c1OCCCCCCCl)C(C1CCCC1)N1CCc3cc4c(cc3C1=C2)OCO4 (stereo not shown) [AB35440]	
5.48 µM	14.2 µM	20.3 µM	CC1c2c(ccc3c2OCO3)C=C2c3cc4c(cc3CCN21)OCO4 (stereo not shown) [AB35413]	

IC50 [1]	IC50 [2, 15]	IC50 [3]	Structure (SMILES)	also measured
2.01 µM	4.04 µM	3.98 µM	COc1ccc2c(c1OCCCCOc1ccccc1)C(C)N1CCc3cc4c(cc3C1=C2)OCO4 (stereo not shown) [AB31881]	
4.99 µM	12.5 µM	18.2 µM	COc1ccc2c(c1OCCN1CCCCC1)C(C(Cl)(Cl)Cl)N1CCc3cc4c(cc3C1=C2)OCO4 (stereo not shown) [AB35420]	
1.11 µM	2.98 µM	2.88 µM	COc1ccc2c(c1OC)C(C1CCCC1)N1CCc3cc4c(cc3C1=C2CCCCCCCl)OCO4 (stereo not shown) [AB35500]	
18.6 µM	18.1 µM	18.8 µM	CCC1=C2c3cc4c(cc3CCN2C(C(Cl)(Cl)Cl)c2c1ccc1c2OCO1)OCO4 (stereo not shown) [AB36426]	
0.82 µM	3.12 µM	4.32 µM	COc1ccc2c(c1OC)C(C)N1CCc3cc4c(cc3C1=C2CCCCc1ccccc1)OCO4 (stereo not shown) [AB35468]	
0.82 µM	3.78 µM	3.56 µM	CCCCCCC1=C2c3cc4c(cc3CCN2C(C2CCCC2)c2c1ccc(OC)c2OC)OCO4 (stereo not shown) [AB35489]	
1.56 µM	4.12 µM	5.32 µM	COc1ccc2c(c1OCCCCCCBr)C(C1CCCC1)N1CCc3cc4c(cc3C1=C2)OCO4 (stereo not shown) [AB35458]	
2.31 µM	5.23 µM	6.35 µM	COc1ccc2c(c1OCCNC(=O)OC(C)(C)C)C(C(Cl)(Cl)Cl)N1CCc3cc4c(cc3C1=C2)OCO4 (stereo not shown) [AB35416]	
0.88 µM	2.56 µM	3.64 µM	[2H]C1c2c(ccc(OC)c2OC)C=C2c3cc4c(cc3CCN21)OCO4 (stereo not shown) [AB36415]	
0.51 µM	1.68 µM	2.58 µM	[2H]C([2H])([2H])Oc1c(OC)ccc2c1C([2H])(C1CCCC1)N1CCc3cc4c(cc3C1=C2)OCO4 (stereo not shown) [AB36509]	
1.26 µM	3.68 µM	4.46 µM	CCCC1=C2c3cc4c(cc3CCN2C(C2CCCC2)c2c1ccc1c2OCO1)OCO4 (stereo not shown) [AB36432]	
0.99 µM	3.32 µM	3.86 µM	CCCCCCC1c2c(ccc(OC)c2OC)C=C2c3cc4c(cc3CCN21)OCCO4 (stereo not shown) [AB31880]	
2.08 µM	5.32 µM	8.34 µM	COc1ccc2c(c1Cl)CN1CCc3cc4c(cc3C1=C2)OCO4 [AB36450]	
1.14 µM	3.42 µM	5.48 µM	COc1ccc2c(c1OCCCCCCNC(=O)OC(C)(C)C)C(C)N1CCc3cc4c(cc3C1=C2)OCO4 (stereo not shown) [AB35415]	
0.79 µM	3.52 µM	5.32 µM	COc1ccc2c(c1OC)C(C(Cl)(Cl)Cl)N1CCc3cc4c(cc3C1=C2CCCCc1ccccc1)OCO4 (stereo not shown) [AB35469]	

Structure (SMILES)	IC50 [1]	IC50 [2, 15]	IC50 [3]	also measured
[2H]C([2H])([2H])Oc1c(OC)ccc2c1C(C1CCCC1)N1CCc3cc4c(cc3C1=C2)OCO4 (stereo not shown) [AB36501]	0.97 µM	4.33 µM	5.12 µM	IC50 [4]: 0.97 µM; IC50 [5]: 0.88 µM; IC50 [6]: 1.32 µM; IC50 [7]: 1.16 µM; IC50 [8]: 9.88 µM; IC50 [9]: 13.1 µM; IC50 [10]: 13.3 µM; IC50 [11]: 15.5 µM; IC50 [12]: 0.76 µM; IC50 [13]: 1.38 µM; IC50 [14]: 2.06 µM
COc1ccc2c(c1OCCCCN)C(C)N1CCc3cc4c(cc3C1=C2)OCO4 (stereo not shown) [AB35429]	1.89 µM	5.32 µM	5.04 µM	IC50 [4]: 1.89 µM; IC50 [5]: 2.02 µM; IC50 [6]: 2.43 µM; IC50 [7]: 1.46 µM; IC50 [8]: 13.4 µM; IC50 [9]: 12.5 µM; IC50 [10]: 18.4 µM; IC50 [11]: 15.3 µM; IC50 [12]: 2.02 µM; IC50 [13]: 3.16 µM; IC50 [14]: 3.45 µM
